Where a name gives a salt, the structure may show the parent alone.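 A five-concentration, 48-hour dose response in 96-well plates underlies each endpoint, interpolated linearly between surrounding concentrations. At the GI50, growth is halved.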 The source made the active and inactive calls. Rule as the data show it: active = GI50 up to about 1.1 µM and inactive = higher. Square brackets hold non-standard residues; d marks the D form. Peptide text beside a SMILES is read from it.
How the values were obtained:
Test in all cases: growth of human tumour cells (NCI), 48 h
U-251 = test system: U-251
786-0 = test system: 786-0
MOLT-4 = test system: MOLT-4
NCI-H460 = test system: NCI-H460
SR = test system: SR
NCI/ADR-RES = test system: NCI/ADR-RES
SN12C = test system: SN12C
SK-MEL-2 = test system: SK-MEL-2
HOP-62 = test system: HOP-62
LOX IMVI = test system: LOX IMVI
HCT-116 = test system: HCT-116
HT-29 = test system: HT-29
SK-MEL-5 = test system: SK-MEL-5
OVCAR-5 = test system: OVCAR-5
MCF7 = test system: MCF7
SNB-19 = test system: SNB-19
Malme-3M = test system: Malme-3M
SF-295 = test system: SF-295
UO-31 = test system: UO-31
OVCAR-4 = test system: OVCAR-4

Compound | GI50 (U-251) | GI50 (786-0) | GI50 (MOLT-4) | GI50 (NCI-H460) | GI50 (SR) | GI50 (NCI/ADR-RES) | GI50 (SN12C) | GI50 (SK-MEL-2) | GI50 (HOP-62) | GI50 (LOX IMVI) | GI50 (HCT-116) | GI50 (HT-29) | GI50 (SK-MEL-5) | GI50 (OVCAR-5) | GI50 (MCF7) | GI50 (SNB-19) | GI50 (Malme-3M) | GI50 (SF-295) | GI50 (UO-31) | GI50 (OVCAR-4)
Cc1cc(NS(=O)(=O)c2ccc(NC(=O)c3cccc4c(NNc5ccc(S(N)(=O)=O)cc5)c5ccccc5nc34)cc2)no1 | 24 µM (inactive) | 54.6 µM (inactive) | 31 µM (inactive) | 34.9 µM (inactive) | 35.8 µM (inactive) | > 100 µM (inactive) | 49.9 µM (inactive) | 24 µM (inactive) | 42.4 µM (inactive) | 30.5 µM (inactive) | 33.2 µM (inactive) | 30.9 µM (inactive) | 39.5 µM (inactive) | 39.6 µM (inactive) | 81.3 µM (inactive) | 60.4 µM (inactive) | 45.9 µM (inactive) | 44.4 µM (inactive) | 36.1 µM (inactive) | 31.8 µM (inactive)
CNN1C(=O)c2c(N)c(C#N)c(-c3ccccc3)c(-c3ccccc3)c2C1=O | 78.9 µM (inactive) | 91.6 µM (inactive) | 39.5 µM (inactive) | 71.6 µM (inactive) | 76.7 µM (inactive) | 82.2 µM (inactive) | > 100 µM (inactive) | > 100 µM (inactive) |  | > 100 µM (inactive) | 44.1 µM (inactive) |  | 62.4 µM (inactive) | 30.3 µM (inactive) | 65.8 µM (inactive) | > 100 µM (inactive) | > 100 µM (inactive) | 73.5 µM (inactive) | 48.6 µM (inactive) | > 100 µM (inactive)
COC(=O)c1c(O)ccc2c1c1c(n2CCc2ccccc2)C(=O)c2ccccc2C1 | 21.9 µM (inactive) | 17 µM (inactive) | 38.3 µM (inactive) | 16.7 µM (inactive) | 29.7 µM (inactive) | 19.7 µM (inactive) | 14.7 µM (inactive) | 15.8 µM (inactive) | 21.2 µM (inactive) | 30.1 µM (inactive) | 15.3 µM (inactive) | 24.4 µM (inactive) | 17.6 µM (inactive) |  | 14.2 µM (inactive) | 24.8 µM (inactive) | 32.3 µM (inactive) |  | 20.7 µM (inactive) | 10.7 µM (inactive)
COC(=O)CN(CC(=O)NCCNC(=O)OC(C)(C)C)C1CCCCC1N(CC(=O)OC)CC(=O)OC (stereo unspecified) | > 100 µM (inactive) | > 100 µM (inactive) | > 100 µM (inactive) | > 100 µM (inactive) | > 100 µM (inactive) | > 100 µM (inactive) | > 100 µM (inactive) | > 100 µM (inactive) | > 100 µM (inactive) | > 100 µM (inactive) | > 100 µM (inactive) | > 100 µM (inactive) | > 100 µM (inactive) | > 100 µM (inactive) | > 100 µM (inactive) | > 100 µM (inactive) | > 100 µM (inactive) | > 100 µM (inactive) | > 100 µM (inactive) | 
NCCCCN [PUTRESCINE HYDROCHLORIDE] | > 100 µM (inactive) | > 100 µM (inactive) | > 100 µM (inactive) | > 100 µM (inactive) | > 100 µM (inactive) | > 100 µM (inactive) |  | > 100 µM (inactive) | > 100 µM (inactive) | > 100 µM (inactive) | > 100 µM (inactive) | > 100 µM (inactive) | > 100 µM (inactive) | > 100 µM (inactive) | > 100 µM (inactive) | > 100 µM (inactive) | > 100 µM (inactive) | > 100 µM (inactive) | > 100 µM (inactive) | 19.4 µM (inactive)
O=[N+]([O-])c1ccc2sc(/C=N/c3ccccn3)cc2c1 | 33.7 µM (inactive) | > 100 µM (inactive) | 19.7 µM (inactive) | > 100 µM (inactive) | 26.4 µM (inactive) | 97.7 µM (inactive) | 88.7 µM (inactive) | > 100 µM (inactive) | > 100 µM (inactive) | 31.9 µM (inactive) | 38.4 µM (inactive) | > 100 µM (inactive) | > 100 µM (inactive) | > 100 µM (inactive) | 30.4 µM (inactive) | > 100 µM (inactive) | > 100 µM (inactive) | 82.8 µM (inactive) | > 100 µM (inactive) | 
COc1cc(OC)nc(-n2c(N)c(C#N)c3ccc([N+](=O)[O-])cc3c2=O)n1 | 92.3 µM (inactive) | > 100 µM (inactive) | > 100 µM (inactive) | > 100 µM (inactive) | > 100 µM (inactive) | > 100 µM (inactive) | > 100 µM (inactive) | > 100 µM (inactive) | > 100 µM (inactive) | > 100 µM (inactive) | > 100 µM (inactive) | > 100 µM (inactive) | > 100 µM (inactive) | > 100 µM (inactive) | > 100 µM (inactive) | > 100 µM (inactive) |  | > 100 µM (inactive) | > 100 µM (inactive) | > 100 µM (inactive)
N=C(N)NCCC[C@H]1NC(=O)[C@@H](CCC(=O)O)NC(=O)[C@@H](CC(=O)O)NC(=O)[C@@H](CCC(=O)O)NC(=O)[C@H](Cc2c[nH]c3ccccc23)NC1=O (cyclo(W[dE][dD][dE][dR])) | > 7.5 µM (inactive) | > 7.5 µM (inactive) | > 7.5 µM (inactive) | > 7.5 µM (inactive) | > 7.5 µM (inactive) | > 7.5 µM (inactive) | > 7.5 µM (inactive) | 0.191 µM (active) | > 7.5 µM (inactive) | > 7.5 µM (inactive) | > 7.5 µM (inactive) | > 7.5 µM (inactive) | > 7.5 µM (inactive) | > 7.5 µM (inactive) | > 7.5 µM (inactive) | > 7.5 µM (inactive) |  | > 7.5 µM (inactive) | > 7.5 µM (inactive) | > 7.5 µM (inactive)
CN(C)CCCc1cccnc1 | > 100 µM (inactive) | > 100 µM (inactive) |  | > 100 µM (inactive) | > 100 µM (inactive) | > 100 µM (inactive) | > 100 µM (inactive) | > 100 µM (inactive) | > 100 µM (inactive) | > 100 µM (inactive) | > 100 µM (inactive) | > 100 µM (inactive) | > 100 µM (inactive) | > 100 µM (inactive) | > 100 µM (inactive) | > 100 µM (inactive) | > 100 µM (inactive) | > 100 µM (inactive) | > 100 µM (inactive) | > 100 µM (inactive)
CC(O)c1c2c(cc3c1CC1(C3)Cc3cc4c(c(C(C)O)c3C1)CCC4)CCC2 (stereo unspecified) | 14.1 µM (inactive) | 14.8 µM (inactive) | 4.13 µM (inactive) |  | 8.38 µM (inactive) | 19.1 µM (inactive) | 16.7 µM (inactive) | 26.9 µM (inactive) | 20.7 µM (inactive) | 17.5 µM (inactive) | 12.1 µM (inactive) | 12.9 µM (inactive) | 13 µM (inactive) | 22.5 µM (inactive) | 11.8 µM (inactive) |  | 15.9 µM (inactive) | 21 µM (inactive) | 1.69 µM (inactive) | 2.86 µM (inactive)
CC(=O)/N=C1/N(/C=C2\C(=O)Oc3ccccc3C2=O)C(=O)/C(=C/c2ccccc2Cl)N1C | > 100 µM (inactive) | > 100 µM (inactive) | > 100 µM (inactive) | > 100 µM (inactive) | 69.3 µM (inactive) | 84.9 µM (inactive) | > 100 µM (inactive) | > 100 µM (inactive) | > 100 µM (inactive) | > 100 µM (inactive) | > 100 µM (inactive) | > 100 µM (inactive) | 48 µM (inactive) | > 100 µM (inactive) | > 100 µM (inactive) | 95.3 µM (inactive) | > 100 µM (inactive) | > 100 µM (inactive) |  | > 100 µM (inactive)
Cc1cn([C@H]2C[C@H](N=[N+]=[N-])[C@@H](CO)O2)c(=O)[nH]c1=O [ZIDOVUDINE] |  | > 100 µM (inactive) | > 100 µM (inactive) | 42.7 µM (inactive) | 177 µM (inactive) | > 96.4 µM (inactive) | > 100 µM (inactive) | > 100 µM (inactive) | > 100 µM (inactive) | > 83 µM (inactive) | 88.5 µM (inactive) | 238 µM (inactive) | 118 µM (inactive) | > 84.5 µM (inactive) | 66.4 µM (inactive) |  | > 100 µM (inactive) |  | > 100 µM (inactive) | > 85.1 µM (inactive)
S=P(C1CCCCC1)(C1CCCCC1)C(c1cccnc1)N1CCCC1 (stereo unspecified) | 20.2 µM (inactive) | 17.6 µM (inactive) | 24 µM (inactive) | 20.2 µM (inactive) | 25.5 µM (inactive) | 19 µM (inactive) | 18.2 µM (inactive) | 20.9 µM (inactive) | 16.3 µM (inactive) | 7.18 µM (inactive) | 18.5 µM (inactive) | 33.8 µM (inactive) | 16.5 µM (inactive) | 36.1 µM (inactive) | > 100 µM (inactive) | 83.2 µM (inactive) | 23.2 µM (inactive) | 21.2 µM (inactive) |  | 21.5 µM (inactive)
COc1ccccc1N1C(=O)/C(=C\c2cc(OC)c(OC)c(OC)c2)S(=O)(=O)C1c1ccccc1 (stereo unspecified) | 18.6 µM (inactive) | 54.7 µM (inactive) | 31.8 µM (inactive) | 61.1 µM (inactive) | 23.7 µM (inactive) | 22.2 µM (inactive) | 73.6 µM (inactive) | 26.9 µM (inactive) | 37.7 µM (inactive) | 29.4 µM (inactive) | 23.8 µM (inactive) |  | 26.4 µM (inactive) |  | 27.4 µM (inactive) | 32.6 µM (inactive) | 26.9 µM (inactive) | 23.8 µM (inactive) | 36.5 µM (inactive) | 39.9 µM (inactive)
